Assay results: ChEMBL document CHEMBL1126845, “N-(carboxymethyl)-N-[3,5-bis(decyloxy)-phenyl]glycine (Ro 23-9358): a potent inhibitor of secretory phospholipases A2 with antiinflammatory activity” (J Med Chem, 1993)

Legend:
Assay type in all cases: functional
[1] = target: T1, Phospholipase A2, membrane associated (Homo sapiens, UniProt P14555); experiment: Tested for inhibitory activity against human synovial fluid PLA2 (HSF-PLA2)
T1 sequence (P14555 whole entry): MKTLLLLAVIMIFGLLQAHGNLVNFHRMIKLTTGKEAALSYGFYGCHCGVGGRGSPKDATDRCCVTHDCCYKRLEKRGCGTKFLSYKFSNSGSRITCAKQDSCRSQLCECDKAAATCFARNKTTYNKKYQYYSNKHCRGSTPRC

Rattus norvegicus [2] = experiment: Paw swelling rats induced by Naja naja venom PLA2 when tested at 30 mg/kg ip; settings: route intraperitoneal
Rattus norvegicus [3] = species: Rattus norvegicus; experiment: Paw volume in rat during treatment period
[4] = Tested for inhibitory activity against purified recombinant human placental PLA2 (r-hpPLA2)

Row | Structure (SMILES) | IC50 [1] [nM] | inhibition in vivo at 30 mg/kg (Rattus norvegicus [2]) [%] | Paw volume (Rattus norvegicus [3]) [mL] | IC50 [4] [nM]
1 | CCCCCCCCCCOc1cc(OCCCCCCCCCC)cc(N(CC(=O)O)CC(=O)O)c1 | 230 | 41 | 1 | 87
2 | CCCCCCCCCCOc1cc(OCCCCCCCCCC)cc(C(=O)O)c1 | 3000 |  |  | 
